{
  "source": "patent US20180064780A1",
  "about": "“SHEAR CONTROLLED RELEASE FOR STENOTIC LESIONS AND THROMBOLYTIC THERAPIES” (PRESIDENT AND FELLOWS OF HARVARD COLLEGE, priority 2010, published 2018)",
  "key": {"[1]": {"system": "ex vivo whole mouse lung with fibrin emboli", "assay": "Mouse pulmonary embolism model (ex vivo whole lung ventilation-perfusion)", "format": "in vivo", "description": "Mouse Pulmonary Embolism Model—\nMale 6-8 week-old C57BL/6 mice (Jackson Laboratory, Bar Harbor, Me.) were weighed and anesthetized with Avertin (200 mg/kg IP). The trachea was incised via surgical tracheotomy, and cannulated with a blunted 22G stainless steel needle tip. The lungs were subsequently ventilated at a rate of 60 breaths/min, with a Peak Inspiratory Pressure (Pip) of 10 cm H2O and a Positive End Expiratory Pressure (Peep) of 3 cm H2O with compressed air using a mouse ventilator (VCM-R, Hugo Sachs Elektroniks, Germany). Ex vivo ventilation and perfusion of the mouse lung was performed using a IL1 ex vivo mouse lung ventilation-perfusion system (Harvard Apparatus, Natick, Mass.), (D. Huh et al., Science 328, 1662 (2010)). Following initiation of mechanical ventilation, the chest was opened via thoracotomy, and heparin (100 IU) was injected into the right ventricle. […] A suture was placed around the pulmonary artery and aorta. Cannulae made from polyethylene tubing (PE90 (0.86 mm ID, 1.7 mm OD)) were placed in the pulmonary artery (PA) and left atrium (LA), and lungs were perfused with RPMI-1640 with 4% Bovine Albumin (Probumin™ Reagent Grade, Billerica, Mass.) and 0.7 g NaCl/500 mL via a roller pump (ISM 834C, Ismatec SA, Switzerland) set at a constant flow rate of 0.5 ml/min in a recirculating system with a system volume of 6 mL. Perfusate and lung temperatures were maintained at 37° C. by housing the entire ex-vivo ventilation perfusion system inside a standard cell incubator without CO2 (Forma Scientific, Ohio). Humidity was maintained in the range of 90-95%. Pulmonary arterial and venous pressures and airway flow and pressures were recorded with dedicated Type 379 vascular pressure and DLP2.5 flow and MPX Type 399/2 airway pressure transducers and TAM-A amplifiers (Hugo Sachs Elektroniks, Germany). Vascular pressures were zeroed at the mid lung level prior to each experiment and recorded using Polyview16© software (Grass Technologies, West Warwick, R.I.) running on a desktop PC running Windows XP SP2 (Microsoft Corporation, Redmond, Wash.).\nPrior to injection of experimental fibrin clots (prepared as above), the measured parameters were allowed to stabilize and remain stable for a period of more than 10 minutes. A solution of fibrin clots suspended in perfusion medium was infused at a flow rate of 0.1 ml/min and mixed with the regular perfusion line entering the pulmonary artery. The fibrin clot suspension was infused until the pulmonary artery pressure increased to ˜three-fold higher than the baseline. The system was then allowed to equilibrate and remain stable for at least 10 minutes. Next, tPA-coated platelet mimetics or free soluble tPA was added to the main perfusion line and circulated through the perfusion system. As in the microfluidic device experiments, when tPA was perfused, plasminogen was added to obtain a final concentration of 2.2 μM. Pulmonary artery and vein pressures were acquired continuously during the perfusion period. At the end of each experiment, lungs were perfused with 4% paraformaldehyde, and prepared for sectioning by incubating in 4% paraformaldehyde, then sucrose and OCT. All experimental animal protocols were approved by the Institutional Animal Care and Use Committee at Children's Hospital Boston and Harvard Medical School."}, "fibrin clots": {"target": "T1, fibrin clots (Homo sapiens, UniProt P02671+P02675+P02679)", "T1 construct": "purchased Enzyme Research Laboratories, IN (fibrinogen, alpha-thrombin); Cell Sciences, MA (plasminogen)", "T1 sequence (P02671 36-629 limits assumed)": "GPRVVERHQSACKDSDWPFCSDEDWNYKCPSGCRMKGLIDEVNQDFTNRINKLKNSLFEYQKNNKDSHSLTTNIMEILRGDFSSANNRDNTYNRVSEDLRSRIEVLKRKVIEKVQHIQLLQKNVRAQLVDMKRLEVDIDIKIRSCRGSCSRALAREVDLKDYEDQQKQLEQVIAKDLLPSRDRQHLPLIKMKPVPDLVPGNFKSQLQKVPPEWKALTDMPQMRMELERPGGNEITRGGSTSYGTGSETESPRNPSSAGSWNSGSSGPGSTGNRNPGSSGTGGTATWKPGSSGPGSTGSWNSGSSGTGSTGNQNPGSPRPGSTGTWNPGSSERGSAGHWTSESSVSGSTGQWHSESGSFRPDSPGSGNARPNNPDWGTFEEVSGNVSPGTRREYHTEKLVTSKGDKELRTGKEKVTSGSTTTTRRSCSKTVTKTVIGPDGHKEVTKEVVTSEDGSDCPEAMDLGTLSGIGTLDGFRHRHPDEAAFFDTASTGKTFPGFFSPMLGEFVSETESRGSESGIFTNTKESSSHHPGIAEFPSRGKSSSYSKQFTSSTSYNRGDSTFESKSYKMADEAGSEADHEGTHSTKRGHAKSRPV", "T1 sequence (P02675 45-491 limits assumed)": "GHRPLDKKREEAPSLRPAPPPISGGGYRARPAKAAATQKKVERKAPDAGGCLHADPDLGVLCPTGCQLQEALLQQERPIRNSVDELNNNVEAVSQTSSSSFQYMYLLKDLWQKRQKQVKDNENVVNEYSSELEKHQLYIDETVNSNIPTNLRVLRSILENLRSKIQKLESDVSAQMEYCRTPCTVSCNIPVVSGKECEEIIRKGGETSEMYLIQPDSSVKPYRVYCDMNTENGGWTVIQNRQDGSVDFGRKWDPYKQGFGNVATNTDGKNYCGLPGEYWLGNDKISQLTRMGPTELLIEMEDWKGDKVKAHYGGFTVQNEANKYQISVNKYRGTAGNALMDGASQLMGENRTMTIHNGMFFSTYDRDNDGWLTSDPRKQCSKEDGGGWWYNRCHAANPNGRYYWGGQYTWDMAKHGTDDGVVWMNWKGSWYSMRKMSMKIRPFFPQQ", "T1 sequence (P02679 27-437 isoform P02679-2 limits assumed)": "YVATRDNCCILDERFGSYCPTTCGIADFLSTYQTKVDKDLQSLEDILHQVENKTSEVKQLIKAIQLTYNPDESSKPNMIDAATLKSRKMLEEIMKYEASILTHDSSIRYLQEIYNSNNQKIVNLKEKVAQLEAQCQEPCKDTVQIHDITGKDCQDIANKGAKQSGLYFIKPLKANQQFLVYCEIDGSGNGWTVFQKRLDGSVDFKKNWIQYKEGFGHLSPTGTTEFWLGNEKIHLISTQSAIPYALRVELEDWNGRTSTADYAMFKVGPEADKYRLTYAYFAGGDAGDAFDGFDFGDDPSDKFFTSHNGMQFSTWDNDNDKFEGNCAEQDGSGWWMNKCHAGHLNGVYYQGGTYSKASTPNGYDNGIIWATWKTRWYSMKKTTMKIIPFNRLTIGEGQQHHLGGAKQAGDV", "assay": "Microfluidic model of vascular embolism (fibrin clot lysis)", "format": "biochemical", "conditions": "t-PA 50 ng/ml; within 1 hour; 10 dyne/cm^2 in unobstructed channel", "source_text": "Microfluidic Models of Vascular Embolism—\nMicrofluidic devices with a narrowed cross-sectional area (80 μm high×0.5 mm wide s 200 mm long) were fabricated using soft lithography as described above. Fibrin clots formed as described below that were infused into the main channel lodged and obstructed the flow in these smaller channels. A solution of t-PA or t-PA coated microaggregates was infused at a flow rate corresponding to a shear stress of 10 dyne/cm^2 in an unobstructed channel. Prior to infusion of the t-PA solutions, bovine plasminogen (Cell Sciences, MA) was added to a final concentration of 2.2 μM (S. L. Diamond, Annual review of biomedical engineering 1, 427 (1999)). During the fibrinolysis process, the fibrin clots size were monitored in real-time (images acquired every 30 sec) on an inverted Zeiss microscope.\nExperimental Fibrin Emboli—\nFibrin clots were formed by adding CaCl2 (20 mM) and human α-thrombin (1 units/ml final concentrations, Enzyme Research Laboratories, IN) to human fibrinogen (5 mg/ml, Enzyme Research Laboratories, IN), as previously described (J. C. Murciano et al., Nature biotechnology 21, 891 (2003) and C. K. Lam, T. Yoo, B. Hiner, Z. Liu, J. Grutzendler, Nature 465, 478 (2010)). […] The diameter of the resulting fibrin beads was determined by optical microscopy to be ˜[…]."}},
  "data": [
    {"substance": "tissue plasminogen activator [free t-PA]", "values": [
      {"measurement": "dose required for similar effects on thrombolysis relative to tPA-coated platelet mimetics", "setting": "[1]; 5000 ng/ml vs 50 ng/ml", "result": 100, "unit": "fold"},
      {"measurement": "effect on pulmonary artery pressure", "setting": "[1]; 10 times higher dose, 500 ng/ml (FIG. 5G)", "result": "did not reduce the pulmonary artery pressure"},
      {"measurement": "effect on pulmonary artery pressure", "setting": "[1]; tPA 50 ng/ml (FIG. 5G)", "result": "did not reduce the pulmonary artery pressure"},
      {"measurement": "effect on pulmonary artery pressure", "setting": "[1]; tPA 50 ng/ml (FIG. 5G), listed as soluble tPA", "result": "failed to produce any significant clinical response"},
      {"measurement": "real-time pulmonary artery pressure: effect on pulmonary hypertension", "setting": "[1]; tPA 50 ng/ml (FIG. 5H)", "result": "ineffective"},
      {"measurement": "reduction of emboli (clot) size", "setting": "fibrin clots", "result": "< 5", "unit": "%"}
    ]}
  ]
}
